Experimental data taken from PubChem BioAssay AID179 (DTP/NCI, 2004).
The source made the active and inactive calls.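 Rule for the calls: active = compounds giving half or more protection of infected cells from virus-caused growth loss, again on retest; inactive = the rest.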

Test system: CEM cells HIV-1 protection, formazan growth assay
Assay: NCI AIDS Antiviral Assay
Settings: for IC50: measured here: growth of uninfected CEM cells
Outline: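 CEM (human) cells, HIV-1 infected vs uninfected, 5-point dosing, formazan growth read-out. Retest threshold 50% protection.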

Row | Compound | EC50 [µM] | IC50 [µM] | outcome
1 | COC1CC(OC2C(C)OC(OC3C(C)OC(OC4C(C)OC(O[C@H]5CC[C@@]6(C)C(=CC[C@]7(O)[C@@H]6C[C@@H](OC(=O)/C=C(\C)C(C)C)[C@@]6(C)[C@]7(O)CC[C@@]6(O)C(C)=O)C5)CC4OC)CC3OC)CC2OC)OC(C)C1O (stereo partly drawn) | > 200 | 27.5 | 
2 | C1CSCCSCCCSCCSCCCSCCSCCCSCCSC1 | > 7.08 | > 7.08 | 
3 | O=C1CCCC/C1=C\c1ccc([N+](=O)[O-])cc1 | > 200 | 6.03 | 
4 | S=c1[nH]nc(Cc2ccccc2)c(=S)[nH]1 |  |  | inactive
5 | CC(=O)NNc1nc(C)c(C(=O)/C=C/C=C/c2ccccc2)s1 | > 21.9 | > 21.9 | 
6 | CCCCCCCCCCCCCCCC[N+](C)(C)CCN(Cc1ccc(OC)cc1)c1ncccn1 | > 200 | 0.977 | 
7 | O=CNNC(=O)Nc1cccc2ccccc12 | > 200 | > 200 | 
8 | COc1cccc2c1OCC1Cc3ccccc3OC21 (stereo not drawn) |  |  | inactive
9 | C(=C\c1cc(CCc2nc3ccccc3[nH]2)[nH]n1)/c1ccccc1 | > 83.2 | > 83.2 | 
10 | COc1ccc(C2c3cc(OC)c(OC)cc3CC3C(=O)OCC32)cc1OC (stereo not drawn) | > 200 | > 200 | 
11 | COc1cc2c(cc1OC)-c1cc3ccccc3c[n+]1CC2 | > 200 | > 200 | 
12 | CC1(C)OC(C[C@]2(C#N)C[C@H](CCl)OC(C)(C)O2)C[C@@H](C[C@]2(C#N)C[C@H](CCl)OC(C)(C)O2)O1 (stereo partly drawn) | > 200 | 67.6 | 
13 | CCOC(=O)c1cc(-c2ccc(OC)c(OC)c2)cn1C | > 200 | 39.8 | 
14 | COC(=O)[C@H](COC(=O)/C=C/c1ccc(OC(C)=O)c(OC(C)=O)c1)NC(=O)/C=C/c1ccc(OC(C)=O)c(OC(C)=O)c1 | > 100 | 17.8 | 
15 | COc1ccc2c(c1)C(=O)C13CC(C(=O)N(C)C)C(OC(C)=O)(CCC21)C3 (stereo not drawn) | > 95.5 | > 95.5 | 
16 | COC[C@H](Cc1ccccc1)N=Cc1ccccc1 | > 200 | > 200 | 
17 | COc1ccc(-c2c(C(=O)Nc3ccccc3)c(-c3ccccc3)n(C3OC(CO)C(O)C(O)C3O)c(=S)c2C#N)cc1 (stereo not drawn) | > 200 | 107 | 
18 | C=CCOCC(O)CNCC(O)COCC=C (stereo not drawn) | > 200 | > 200 | 
19 | CC(=O)Oc1ccc(-c2oc3c([C@H]4C=C(C)CC(c5ccc(OC(C)=O)cc5OC(C)=O)[C@@H]4C(=O)c4ccc(OC(C)=O)c(CC=C(C)C)c4OC(C)=O)c(OC(C)=O)cc(OC(C)=O)c3c(=O)c2CC=C(C)C)c(OC(C)=O)c1 (stereo partly drawn) | > 8.13 | > 8.13 | 
20 | CC(C)/C(Cl)=N\OC(=O)Nc1ccc(S(N)(=O)=O)cc1 | > 200 | 9.77 | 
21 | O=[N+]([O-])c1ccc(CS(=O)(=O)c2ccccc2)cc1 |  |  | inactive

Row | Compound | EC50 [µM] | IC50 [µM] | outcome
22 | CCOC(=O)C1=C(O)c2c(sc(C)c2-c2ccccc2)N(S(=O)(=O)c2ccc(C)cc2)CC1 | > 100 | 4.79 | 
23 | COC(=O)C(=O)C(C(=O)C(=O)Nc1cc(C)ccc1C)c1nc2ccc(C(=O)c3ccccc3)cc2[nH]c1=O (stereo not drawn) |  |  | inactive
24 | OC(CN(Cc1nc2ccccc2[nH]1)Cc1nc2ccccc2[nH]1)CN(Cc1nc2ccccc2[nH]1)Cc1nc2ccccc2[nH]1 | > 200 | 2.51 | 
25 | C/C(=C/C(=O)Nn1c(Cc2ccccc2)n[nH]c1=O)C(=O)O | > 200 | > 200 | 
26 | COc1cccc(C2c3cc4c(cc3OC(NNc3ccccc3)C2C)OCO4)c1O (stereo not drawn) | > 200 | 11.2 | 
27 | Cc1csc2nc(-c3cccs3)nn12 | > 200 | > 200 | 
28 | O=C(Cc1ccccc1)N/N=C(\C1=Nc2ccc([N+](=O)[O-])cc2NC1O)C(O)c1ccc([N+](=O)[O-])cc1 (stereo not drawn) | > 51.3 | 47.9 | 
29 | CC(C)OP(=O)(CN(C)/C(F)=N\C(F)(F)F)OC(C)C | > 200 | > 200 | 
30 | O=c1[nH]c2ccccc2c2oc(-c3ccccc3)nc12 | > 100 | > 100 | 
31 | Cn1c(COC(=O)Nc2ccccc2)c(COC(=O)Nc2ccccc2)c2ccc3ccccc3c21 | > 200 | 0.339 | 
32 | COc1ccc(S(=O)(=O)N/N=C/CN2C(=O)c3ccccc3C2=O)cc1OC | > 64.6 | > 64.6 | 
33 | NC(=O)c1ccc([Se][Se]c2ccc(C(N)=O)cc2)cc1 | > 13.2 | 6.92 | 
34 | CCCCCCCCCCCCNP(=S)(NCCCCCCCCCCCC)NCCCCCCCCCCCC | > 100 | > 100 | 
35 | Cc1oc2nc(N(C)C)nc(NN)c2c1C |  |  | inactive
36 | CCOCCCCS(=O)(=O)O | > 200 | > 200 | 
37 | CS(=O)(=O)c1cc(=O)[nH]c(=O)[nH]1 | 77.6 | 102 | 
38 | Cn1cc2ccccc2c1-c1nc(F)nc(F)n1 | > 15.1 | > 15.1 | 
39 | NCCCNCCS | > 589 | 30.2 | 
40 | c1ccc2c(c1)cnn1cnnc21 | > 1480 | 661 | 
41 | Cc1cn([C@H]2C[C@@H]3[C@@H](COC(C)(C[Se]c4ccccc4)N3O)O2)c(=O)[nH]c1=O (stereo partly drawn) | 50.1 | 162 | 
42 | O=[N+]([O-])c1ncnc2c1ncn2C1OC(CO)CC1F (stereo not drawn) | > 89.1 | 28.2 | 

Row | Compound | EC50 [µM] | IC50 [µM] | outcome
43 | COC(OC)c1cccc2c1C(=O)CCC1(CC2)OCCCCO1 | > 200 | > 200 | 
44 | CCN(CC)CCCNc1nc2ccccc2c2c1ncn2CC(C)C | > 200 | 41.7 | 
45 | CC1(C)NC(=O)[C@]2(C[C@@H](O)C=C2CO)O1 | > 200 | > 200 | 
46 | CCOC(=O)/C(=C\c1ccc(Br)cc1)P(=O)(OCC)OCC | > 331 | 6.76 | 
47 | COc1ccc(OC)c(NC2=NCCO2)c1 | > 200 | 107 | 
48 | O=C(Cc1ccc(OCc2cccc(Cl)c2)cc1)NO | > 200 | 29.5 | 
49 | O=c1[nH]c(=O)n(C2CC(O)C(CO)O2)c2nc3ccc4cc5ccccc5cc4c3nc12 (stereo not drawn) | > 50.1 | 39.8 | 
50 | Brc1ccc(C2SCc3nc4ccccc4n32)cc1 (stereo not drawn) |  |  | inactive
51 | CNC(=O)OCc1nc(N=[N+]=[N-])n(C)c1COC(=O)NC | > 200 | 42.7 | 
52 | C[C@]12CC[C@H](OS(=O)(=O)O)CC1CCC1C2CC[C@@]2(C)C1CC[C@@H]2CO (stereo partly drawn) | > 60.3 | > 60.3 | 
53 | S=C(Nc1ccc(Br)cn1)Nc1ccccc1-c1ccccc1 | > 2 | 0.389 | 
54 | COc1cc(C(=C2SCCS2)c2nccc3cc(OC)c(OC)cc23)c([N+](=O)[O-])cc1OC |  |  | inactive
55 | COC(=O)C(=O)CC(=O)CCn1ncc(Cl)c(Cl)c1=O | > 776 | 4.07 | 
56 | CC1=C2CCC(O)CC2(C)C(O)C1C (stereo not drawn) |  |  | inactive
57 | O=C(O)CN(CC(=O)O)Cc1ccn(-c2cccc(-n3ccc(CN(CC(=O)O)CC(=O)O)n3)n2)n1 | > 200 | > 200 | 
58 | COc1ccc(C2(OC)Oc3ccccc3C(=O)C2(O)O)cc1 (stereo not drawn) | > 200 | 12.6 | 
59 | c1ccc(CN2CCc3[nH]c4ccccc4c3C2)cc1 | > 200 | 21.9 | 
60 | COC1=C(C2=NC(C)(C)CO2)c2ccccc2C(C/C=C/[Si](C)(C)C)C1 (stereo not drawn) | > 26.9 | > 26.9 | 
61 | N#CC(c1ccccc1)N(CCc1ccccc1)C(=O)c1ccc(C(=O)N(CCc2ccccc2)C(C#N)c2ccccc2)cc1 (stereo not drawn) | > 200 | 28.2 | 
62 | O=C(/C=C/c1ccncc1)c1ccccc1 | > 324 | 6.03 | 
63 | COC(=O)C(C(=O)C(=O)Nc1ccc(N)cc1[N+](=O)[O-])c1nc2ccc(Cl)cc2[nH]c1=O (stereo not drawn) | > 40.7 | 30.9 | 

Row | Compound | EC50 [µM] | IC50 [µM] | outcome
64 | O=C1c2ccccc2C(=O)C2OC12 (stereo not drawn) | > 20 | 0.977 | 
65 | Cc1ccc(C(=O)Nc2ccc(CP(=O)(O)O)cc2)cc1NC(=O)Nc1cc(C(=O)Nc2ccc(CP(=O)(O)O)cc2)ccc1C | > 50.1 | > 50.1 | 
66 | COc1ccc(N=Nc2c(C)c(C#N)c(=S)n(C3OC(COC(C)=O)C(OC(C)=O)C(OC(C)=O)C3OC(C)=O)c2-c2ccccc2)cc1 (stereo not drawn) | > 200 | 126 | 
67 | NS(=O)(=O)c1ccc(NC(=O)/C=C\C(=O)O)cc1 | > 200 | > 200 | 
68 | Cc1ccc(S(=O)(=O)NNC(=O)c2sc(-c3nc(C)c(C(=O)NNS(=O)(=O)c4ccc(C)cc4)s3)nc2C)cc1 | > 81.3 | > 81.3 | 
69 | O=[N+]([O-])c1ccc(N=Nc2c(F)cc(NCS(=O)(=O)O)cc2F)cc1 | > 100 | > 100 | 
70 | CSc1ccc(NC(=O)C2c3[nH]c4ccccc4c3C3CCC(C(C)(C)C)CC3C2C(=O)O)cc1 (stereo not drawn) | > 7.76 | > 7.76 | 
71 | Cc1ccc(-c2c3nc(c(-c4ccc(C)cc4)c4ccc([nH]4)c(-c4ccc(C)cc4)c4nc(c(-c5ccncc5)c5ccc2[nH]5)C=C4)C=C3)cc1.Cc1ccc(-c2c3nc(c(-c4ccc(C)cc4)c4ccc([nH]4)c(-c4ccc(C)cc4)c4nc(c(-c5ccncc5)c5ccc2[nH]5)C=C4)C=C3)cc1.O=S(=O)([O-])C(F)(F)F.[Pt+2].c1ccc([PH+](CCC[PH+](c2ccccc2)c2ccccc2)c2ccccc2)cc1 |  |  | inactive
72 | [C-]#[O+].[C-]#[O+].[C-]#[O+].[C-]#[O+].[C-]#[O+].[C-]#[O+].[Fe].[Fe].c1ccc([P-]c2ccccc2[P-]c2ccccc2)cc1 (stereo not drawn) | > 1.82 | > 1.82 | 
73 | CCCCCCCCCCCCCCCC/C(C(=O)OC)=C(/O)C(=O)OCC | > 8.51 | > 8.51 | 
74 | CC(C)C(N)S(=O)(=O)O (stereo not drawn) | > 200 | > 200 | 
75 | CCOC(=O)/C(=C\c1cccc(OC)c1)P(=O)(OCC)OCC | > 525 | 11.5 | 
76 | CC(=O)N(C(C)=O)n1c(Cc2ccc(Cl)cc2)nn(C(C)=O)c1=O | > 200 | > 200 | 
77 | Cc1csc(=Nc2ccccc2)n1CCC(O)(P(=O)(O)O)P(=O)(O)O | > 200 | 9.55 | 
78 | Cc1c(C(=O)O)cc2n(c1=O)Cc1cc3ccccc3nc1-2 | > 10 | > 10 | 
79 | COC(=O)C1=C(C)NC2=C(C(=O)c3ccccc32)C1c1cn(-c2ccccc2)nc1-c1ccccc1 (stereo not drawn) | > 200 | 8.71 | 
80 | O=[N+]([O-])c1ccc(-c2cnc3ccccn23)cc1 | > 105 | > 105 | 
81 | Cc1cc(NS(=O)(=O)c2ccc(NC(=O)c3cccc4c(Nc5ccc(S(=O)(=O)Nc6cc(C)on6)cc5)c5ccccc5nc34)cc2)no1 | > 36.3 | > 36.3 | 
